According to patent US5633263A, “Linear somatostatin analogs” (The Administrators of the Tulane Educational Fund, priority 1994, dated 1997):
Where a SMILES comes first, the peptide text is derived from it. [ ]: non-standard residue; d: D form.

Tests used:
[1] = biological target: [125I-Tyr11]SRIF-14 binding to crude membrane preparations from rat cerebral cortex; assay: Inhibition of [125I]SRIF-14 binding, brain membranes; conditions: [125I]SRIF-14 approximately 0.05 nM, read-out: IC50 (nM) Brain, inhibition of I125 SRIF-14 binding
Description: (§1) Crude membrane preparations were obtained from rat pancreas, cerebral cortex, or human small cell lung carcinoma (NCI-H69) cells by homogenizing (Polytron, setting 6, 15 sec) the tissues or cells in ice-cold 50 mM Tris-HCl and centrifuging twice at 39,000× g (10 min), with an intermediate resuspension in fresh buffer. The final pellets were resuspended in 10 mM Tris-HCl for assay. Aliquots of the membrane preparation were incubated for 25 min at 30° C. with labeled somatotropin-release-inhibiting factor, [^125 I-Tyr^11 ] SRIF-14 (2000 Ci/mmol, Amersham Corp.), in 50 mM HEPES (pH 7.4) containing bovine serum albumin (10 mg/ml; fraction V, Sigma Chem.), MgCl2 (5mM), Trasylol (200 KIU/ml), bacitracin (0.02 mg/ml), and phenylmethylsulphonyl fluoride (0.02 mg/ml). The final assay volume was 0.3 ml. The incubations were terminated by rapid filtration through Whatman GF/C filters (pre-soaked in 0.3% polyethylenimine) under reduced pressure. Each tube and filter were then washed three times with 5 ml aliquots of ice-cold buffer. Specific binding was defined as the total [^125 I]SRIF-14 bound minus that bound in the presence of 200 nM unlabelled SRIF-14.
(§2) Table 1 gives results of inhibition of [^125 I]SRIF-14 binding by linear peptides of the invention. The concentration of [^125 I]SRIF-14 was approximately 0.05 nM. […]

[2] = tested on: [125I-Tyr11]SRIF-14 binding to crude membrane preparations from human small cell lung carcinoma (NCI-H69) cells; assay: Inhibition of [125I]SRIF-14 binding, SCLC membranes; conditions: [125I]SRIF-14 approximately 0.05 nM, read-out: IC50 (nM) SCLC, inhibition of I125 SRIF-14 binding
Description: as §1, §2

[3] = biological target: [125I-Tyr11]SRIF-14 binding to crude membrane preparations from rat pancreas; assay: Inhibition of [125I]SRIF-14 binding, pancreas membranes; conditions: for IC50: rat pancreas membranes, [125I]SRIF-14 approximately 0.05 nM, read-out: IC50 (nM) Pancreas, inhibition of I125 SRIF-14 binding
Description: as §1
Table 1 gives results of inhibition of [^125 I]SRIF-14 binding by linear peptides of the invention. The concentration of [^125 I]SRIF-14 was approximately 0.05 nM. (Values in parenthesis indicate the number of independent determinations.) The IC50 (concentration of analog resulting is 50% competitive inhibition) in nM values are indicated for pancreas, small cell lung carcinoma (SCLC), and brain. […] Peptide DC-23-85, which is not within the invention, inhibits the binding of I^125 SRIF-14 only poorly.

inhibiting the binding of I125 SRIF-14 (in words) ([3]; summary in words of Table 1 (pancreas, SCLC, brain))	Compound	IC50 [1] [nM]	IC50 [2] [nM]	IC50 [3] [nM]
particularly effective	C[C@@H](O)[C@H](NC(=O)[C@H](Cc1ccccc1)NC(=O)[C@@H](NC(=O)[C@H](CCCCN)NC(=O)[C@@H](Cc1c[nH]c2ccccc12)NC(=O)[C@H](Cc1ccccc1)NC(=O)[C@H](Cc1ccccc1)NC(=O)[C@H](N)Cc1ccccc1)[C@@H](C)O)C(N)=O [BIM-23052/DC-23-99, D-Phe-Phe-Phe-D-Trp-Lys-Thr-Phe-Thr-NH2] (H-[dF]FF[dW]KTFT-NH2)	7.3	1.2	9.4
–	C[C@H](N)C(=O)NCC(=O)N[C@H]1CSSC[C@@H](C(=O)O)NC(=O)[C@H](CO)NC(=O)[C@H]([C@@H](C)O)NC(=O)[C@H](Cc2ccccc2)NC(=O)[C@H]([C@@H](C)O)NC(=O)[C@H](CCCCN)NC(=O)[C@H](Cc2c[nH]c3ccccc23)NC(=O)[C@H](Cc2ccccc2)NC(=O)[C@H](Cc2ccccc2)NC(=O)[C@H](CC(N)=O)NC(=O)[C@H](CCCCN)NC1=O [Somatostatin, Ala-Gly-Cys-Lys-Asn-Phe-Phe-Trp-Lys-Thr-Phe-Ser-OH]	0.53	4.2	0.53
